{"source": "patent US6358701B1", "about": "“DNA molecules encoding Ctenocephalides felis glutamate gated chloride channels” (Merck & Co., Inc., priority 1997, dated 2002)", "key": {"[1]": {"tested_on": "CfGluCl-1 (C. felis GluCl channel)", "assay": "Two microelectrode voltage clamp of Xenopus oocytes expressing CfGluCl-1", "type": "cell-based, Ctenocephalides felis", "settings": "for ability to activate CfGluCl-1: agonists for other types of ligand-gated chloride channels", "procedure": "The full-length cDNA encoding CfGluCl-1 in plasmid vector pBluescript (Stratagene, LaJolla, Calif.) is linearized and capped cRNA transcripts are synthesized using appropriate oligonucleotide primers and the mMESSAGE mMACHINE in vitro RNA transcription kit (Ambion). Xenopus laevis oocytes were prepared and injected using standard methods as described (Arena et al., 1991, Mol. Pharmacol. 40: 368-374; Arena et al, 1992, Mol. Brain Res. 15: 339-348). Adult female Xenopus laevis were anesthetized with 0.17% tricaine methanesulfonate and the ovaries were surgically removed and placed in a dish consisting of (mM): NaCl 82.5, KCl 2, MgCl2 1, CaCl2 1.8, HEPES 5 adjusted to pH 7.5 with NaOH (OR-2). Ovarian lobes were broken open, rinsed several times, and gently shaken in OR-2 containing 0.2% collagenase (Sigma, Type IA) for 2-5 hours. When approximately 50% of the follicular layers were removed, Stage V and VI oocytes were selected and placed in media consisting of (mM): NaCl 86, KCl 2, MgCl2 1, CaCl2 1.8, HEPES 5, Na pyruvate 2.5, theophylline 0.5, gentamicin 0.1 adjusted to pH 7.5 with NaOH (ND-96) for […] before injection. For most experiments, oocytes were injected with 10 ng of cRNA in 50 nl of RNase free water. Control oocytes were injected with 50 nl of water. Oocytes were incubated for 1-5 days in ND-96 supplemented with […] gentamycin, 2.5 mM Na pyruvate and 0.5 mM theophylline before recording. Incubations and collagenase digestion were carried out at […].\nVoltage-clamp studies were conducted with the two microelectrode voltage clamp technique using a Dagan CA1 amplifier (Dagan Instruments, Minneapolis, Minn.). The current passing microelectrodes were filled with 0.7M KCl plus 1.7M K3-citrate and the voltage recording microelectrodes were filled with 1.0M KCl. The extracellular solution for most experiments was saline consisting of (mM): NaCl 96, BaCl2 3.5, MgCl2 0.5, CaCl2 0.1, HEPES 5, adjusted to pH 7.5 with NaOH. The extracellular chloride concentration was reduced in some experiments by equimolar replacement of NaCl with the sodium salt of the indicated anion. Experiments were conducted at 21-24° C. Data were acquired using the program Pulse and most analysis was performed with the companion program Pulsefit (Instrutech Instruments, Great Neck, N.Y.) or with Igor Pro (Wavemetrics, Lake Oswego, Oreg.). Data were filtered (fc, −3db) at 1 kHz, unless otherwise indicated.\nFIG. 5A and FIG. 5B show the activation of CfGluCl-1 by glutamate. […] The duration of exposure to glutamate is indicated by the solid bar at top. FIG. 5B shoes the concentration-response curve for glutamate. Peak outward current is plotted vs. glutamate concentration. The solid curve is the best fit to the equation I/Imax={1+(EC50/[glutamate])^n}^−1. […] Agonists for other types of ligand-gated chloride channels were also tested for the ability to activate\nEach curve represents the difference between the current measured with and without 10 μM glutamate. The voltage was ramped from −120 to +60 mV at 1 volt/second. Chloride concentration was reduced from 104 mM to 8.2 mM by equimolar substitution of NaCl by Na-methanesulfonate or Na-gluconate. Each current-voltage relationship was fit to a seventh order polynomial using non-linear least squares analysis and the reversal potential was taken as the x-intercept of this polynomial.\nA single [IVM-PO4] was tested on each oocyte. The ordinate is the maximal current induced by IVM-PO4 normalized by the peak current induced by 100 μM glutamate, a maximally effective concentration. The error bars indicate ±S.E.M. The holding potential was 0 mV for both sets of measurements. The filled circles represent data for CfGluCl-1.\n(1) I=Iivm,max/{1+(EC50/[IVM-PO4])^n}"}, "[2]": {"molecular_target": "DmGluCl1 (Drosophila melanogaster, UniProt Q94900)", "sequence (Q94900 23-456 S345N)": "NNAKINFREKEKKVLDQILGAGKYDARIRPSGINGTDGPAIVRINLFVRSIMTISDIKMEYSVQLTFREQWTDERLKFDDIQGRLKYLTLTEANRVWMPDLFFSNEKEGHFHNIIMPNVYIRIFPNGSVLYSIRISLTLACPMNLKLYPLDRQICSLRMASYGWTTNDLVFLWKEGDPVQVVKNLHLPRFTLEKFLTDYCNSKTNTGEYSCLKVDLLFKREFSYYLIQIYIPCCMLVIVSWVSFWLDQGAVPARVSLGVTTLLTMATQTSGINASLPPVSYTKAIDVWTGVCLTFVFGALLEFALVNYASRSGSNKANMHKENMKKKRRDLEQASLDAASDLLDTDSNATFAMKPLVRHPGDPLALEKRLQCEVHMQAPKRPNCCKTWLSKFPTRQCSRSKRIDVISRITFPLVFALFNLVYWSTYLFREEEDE", "settings": "holding potential −80 mV; cited from earlier work"}}, "note": "Read-outs that look alike come from different tables or passages of the source.", "data": [{"compound": "ivermectin phosphate [IVM-PO4]", "values": [{"measurement": "increase in potency", "setting": "[1]; 0 mV measurements vs. earlier −80 mV data", "result": 10, "unit": "fold"}, {"measurement": "agonist activity at the flea GluCl channel encoded by CfGluCl-1", "setting": "[1]; FIGS. 7A and B", "result": "agonist"}, {"measurement": "Iivm,max (maximal current normalized by the peak current induced by 100 μM glutamate)", "setting": "[1]; holding potential 0 mV", "result": 0.718}, {"measurement": "EC50", "setting": "[1]; holding potential 0 mV, fit to equation (1), read-out: EC50 for activation of CfGluCl-1", "result": 2.93, "unit": "nM"}, {"measurement": "EC50", "setting": "[2]", "result": 41, "unit": "nM"}, {"measurement": "Iivm,max on DmGluCl1", "setting": "[2]", "result": 0.35}, {"measurement": "n (exponent of equation (1)) on DmGluCl1", "setting": "[2]", "result": 1.2}]}, {"compound": "CC(=O)OCC[N+](C)(C)C", "note": "[acetylcholine]", "values": [{"measurement": "ability to activate CfGluCl-1", "setting": "[1]", "result": "inactive"}]}, {"compound": "NCCCC(=O)O", "note": "[GABA]", "values": [{"measurement": "ability to activate CfGluCl-1", "setting": "[1]", "result": "inactive"}]}, {"compound": "N[C@@H](CCC(=O)O)C(=O)O", "note": "[glutamate]", "values": [{"measurement": "EC50", "setting": "[1]; experiment of FIG. 5B, fit to I/Imax={1+(EC50/[glutamate])^n}^−1, read-out: EC50 for activation of CfGluCl-1 (peak outward current vs. concentration)", "result": 9300, "unit": "nM"}]}, {"compound": "NCc1cc(=O)[nH]o1", "note": "[muscimol]", "values": [{"measurement": "ability to activate CfGluCl-1", "setting": "[1]", "result": "inactive"}]}, {"compound": "NCCc1c[nH]cn1", "note": "[histamine]", "values": [{"measurement": "ability to activate CfGluCl-1", "setting": "[1]", "result": "inactive"}]}, {"compound": "NCC(=O)O", "note": "[glycine]", "values": [{"measurement": "ability to activate CfGluCl-1", "setting": "[1]", "result": "inactive"}]}]}
